The supplement of paper PMC10307832

How the values were obtained:
Experiment in all cases: relative viability (nuclei count vs DMSO), 5 days (fraction); higher = more cells survive
[1] = system: BEN
Summary of the method: (§1)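 For relative viability, nuclei counts in treated wells were divided by those in vehicle wells. Lung cancer cell lines had been pin-tool dosed in 1536-well plates the day after seeding and cultured for 5 days, then fixed and stained in one step (final 0.05% Triton X-100, 1% formaldehyde, 1 ug/ml Hoechst) and imaged at 4×. Doses were one drug alone or a fixed anchor-drug dose plus five library-drug doses (not always all listed) in √10 steps, and values are duplicate-plate medians.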

[2] = system: ChaGo-K-1
Summary of the method: as §1

[3] = system: HCC-78
Summary of the method: as §1

[4] = system: LC-2-ad
Summary of the method: as §1

[5] = system: LCLC-97TM1
Summary of the method: as §1

[6] = system: LK-2
Summary of the method: as §1

[7] = system: LU99A
Summary of the method: as §1

[8] = system: LXF-289
Summary of the method: as §1

[9] = system: NCI-H1355
Summary of the method: as §1

[10] = system: NCI-H1651
Summary of the method: as §1

[11] = system: NCI-H1666
Summary of the method: as §1

[12] = system: NCI-H1944
Summary of the method: as §1

[13] = system: NCI-H1975
Summary of the method: as §1

[14] = system: NCI-H2087
Summary of the method: as §1

[15] = system: NCI-H2342
Summary of the method: as §1

[16] = system: NCI-H358
Summary of the method: as §1

[17] = system: NCI-H596
Summary of the method: as §1

[18] = system: NCI-H650
Summary of the method: as §1

[19] = system: NCI-H661
Summary of the method: as §1

[20] = system: NCI-H838
Summary of the method: as §1

[21] = system: PC-3 [JPC-3]
Summary of the method: as §1

[22] = system: SK-MES-1
Summary of the method: as §1

For COc1cc2nccc(Oc3ccc(NC(=O)Nc4cc(C)on4)c(Cl)c3)c2cc1OC [Tivozanib] + Nc1ncn([C@H]2C[C@H](O)[C@@H](CO)O2)c(=O)n1 [Decitabine] (partner 2 µM), the relative viability ([1]; first compound 0.005 µM) was 0.725, the relative viability ([1]; first compound 0.01581 µM) was 0.703 and the relative viability ([1]; first compound 0.05 µM) was 0.761. The relative viability ([1]; first compound 0.1581 µM) was 0.471, the relative viability ([1]; first compound 0.5 µM) was 0.563 and the relative viability ([2]; first compound 0.005 µM) was 0.458. For the same molecule, the relative viability ([2]; first compound 0.01581 µM) was 0.498, the relative viability ([2]; first compound 0.05 µM) was 0.515 and the relative viability ([2]; first compound 0.1581 µM) was 0.543. It also gave a relative viability ([2]; first compound 0.5 µM) of 0.489, a relative viability ([3]; first compound 0.005 µM) of 0.685 and a relative viability ([3]; first compound 0.01581 µM) of 0.807. The relative viability ([3]; first compound 0.05 µM) was 0.733, the relative viability ([3]; first compound 0.1581 µM) was 0.651 and the relative viability ([3]; first compound 0.5 µM) was 0.667. The relative viability ([4]; first compound 0.005 µM) was 0.835, the relative viability ([4]; first compound 0.01581 µM) was 0.681 and the relative viability ([4]; first compound 0.05 µM) was 0.77. For the same molecule, the relative viability ([4]; first compound 0.1581 µM) was 0.58, the relative viability ([4]; first compound 0.5 µM) was 0.57 and the relative viability ([5]; first compound 0.005 µM) was 0.215. The relative viability ([5]; first compound 0.01581 µM) was 0.22, the relative viability ([5]; first compound 0.05 µM) was 0.297 and the relative viability ([5]; first compound 0.1581 µM) was 0.221. For the same molecule, the relative viability ([5]; first compound 0.5 µM) was 0.19, the relative viability ([6]; first compound 0.005 µM) was 0.275 and the relative viability ([6]; first compound 0.01581 µM) was 0.322. For the same molecule, the relative viability ([6]; first compound 0.05 µM) was 0.334, the relative viability ([6]; first compound 0.1581 µM) was 0.204 and the relative viability ([6]; first compound 0.5 µM) was 0.206. For the same molecule, the relative viability ([7]; first compound 0.005 µM) was 1.04, the relative viability ([7]; first compound 0.01581 µM) was 0.769 and the relative viability ([7]; first compound 0.05 µM) was 0.894. It also gave a relative viability ([7]; first compound 0.1581 µM) of 0.679, a relative viability ([7]; first compound 0.5 µM) of 0.758 and a relative viability ([8]; first compound 0.005 µM) of 0.331. For the same molecule, the relative viability ([8]; first compound 0.01581 µM) was 0.363, the relative viability ([8]; first compound 0.05 µM) was 0.35 and the relative viability ([8]; first compound 0.1581 µM) was 0.346. It also gave a relative viability ([8]; first compound 0.5 µM) of 0.404, a relative viability ([9]; first compound 0.005 µM) of 0.318 and a relative viability ([9]; first compound 0.01581 µM) of 0.314. The relative viability ([9]; first compound 0.05 µM) was 0.334, the relative viability ([9]; first compound 0.1581 µM) was 0.333 and the relative viability ([9]; first compound 0.5 µM) was 0.363. For the same molecule, the relative viability ([10]; first compound 0.005 µM) was 0.572, the relative viability ([10]; first compound 0.01581 µM) was 0.551 and the relative viability ([10]; first compound 0.05 µM) was 0.675. It also gave a relative viability ([10]; first compound 0.1581 µM) of 0.438, a relative viability ([10]; first compound 0.5 µM) of 0.524 and a relative viability ([11]; first compound 0.005 µM) of 0.664. For the same molecule, the relative viability ([11]; first compound 0.01581 µM) was 0.683, the relative viability ([11]; first compound 0.05 µM) was 0.784 and the relative viability ([11]; first compound 0.1581 µM) was 0.665. It also gave a relative viability ([11]; first compound 0.5 µM) of 0.643, a relative viability ([12]; first compound 0.005 µM) of 0.402 and a relative viability ([12]; first compound 0.01581 µM) of 0.473. The relative viability ([12]; first compound 0.05 µM) was 0.447, the relative viability ([12]; first compound 0.1581 µM) was 0.459 and the relative viability ([12]; first compound 0.5 µM) was 0.416. It also gave a relative viability ([13]; first compound 0.005 µM) of 0.36, a relative viability ([13]; first compound 0.01581 µM) of 0.414 and a relative viability ([13]; first compound 0.05 µM) of 0.352. The relative viability ([13]; first compound 0.1581 µM) was 0.362, the relative viability ([13]; first compound 0.5 µM) was 0.405 and the relative viability ([14]; first compound 0.005 µM) was 0.275. The relative viability ([14]; first compound 0.01581 µM) was 0.249, the relative viability ([14]; first compound 0.05 µM) was 0.352 and the relative viability ([14]; first compound 0.1581 µM) was 0.254. For the same molecule, the relative viability ([14]; first compound 0.5 µM) was 0.348, the relative viability ([15]; first compound 0.005 µM) was 0.678 and the relative viability ([15]; first compound 0.01581 µM) was 0.646. It also gave a relative viability ([15]; first compound 0.05 µM) of 0.789, a relative viability ([15]; first compound 0.5 µM) of 0.712 and a relative viability ([16]; first compound 0.005 µM) of 0.187. For the same molecule, the relative viability ([16]; first compound 0.01581 µM) was 0.217, the relative viability ([16]; first compound 0.05 µM) was 0.215 and the relative viability ([16]; first compound 0.1581 µM) was 0.222. For the same molecule, the relative viability ([16]; first compound 0.5 µM) was 0.206, the relative viability ([17]; first compound 0.005 µM) was 0.975 and the relative viability ([17]; first compound 0.01581 µM) was 0.994. It also gave a relative viability ([17]; first compound 0.05 µM) of 1.15, a relative viability ([17]; first compound 0.5 µM) of 1.03 and a relative viability ([18]; first compound 0.005 µM) of 0.296. For the same molecule, the relative viability ([18]; first compound 0.01581 µM) was 0.299, the relative viability ([18]; first compound 0.05 µM) was 0.35 and the relative viability ([18]; first compound 0.1581 µM) was 0.312. It also gave a relative viability ([18]; first compound 0.5 µM) of 0.294, a relative viability ([19]; first compound 0.005 µM) of 0.527 and a relative viability ([19]; first compound 0.01581 µM) of 0.557. The relative viability ([19]; first compound 0.05 µM) was 0.592, the relative viability ([19]; first compound 0.1581 µM) was 0.514 and the relative viability ([19]; first compound 0.5 µM) was 0.552. For the same molecule, the relative viability ([20]; first compound 0.005 µM) was 0.431, the relative viability ([20]; first compound 0.01581 µM) was 0.499 and the relative viability ([20]; first compound 0.05 µM) was 0.446. It also gave a relative viability ([20]; first compound 0.1581 µM) of 0.482, a relative viability ([20]; first compound 0.5 µM) of 0.428 and a relative viability ([21]; first compound 0.01581 µM) of 0.843. It also gave a relative viability ([21]; first compound 0.05 µM) of 0.805, a relative viability ([21]; first compound 0.1581 µM) of 0.815 and a relative viability ([21]; first compound 0.5 µM) of 0.831. The relative viability ([22]; first compound 0.005 µM) was 0.363, the relative viability ([22]; first compound 0.01581 µM) was 0.363 and the relative viability ([22]; first compound 0.05 µM) was 0.371. It also gave a relative viability ([22]; first compound 0.1581 µM) of 0.393 and a relative viability ([22]; first compound 0.5 µM) of 0.435.
